Reference: the kinase profiling compilation of Christmann-Franck et al. (2016)
Each block holds one molecule with its values, some of them ahead of it.

What was measured:
Test in all cases: radiometric filter-binding kinase assay
[1] = target: FLT1 (human) (UniProt P17948)
[2] = target: MAPKAPK2 (human) (UniProt P49137)
[3] = target: EPHB2 (human) (UniProt P29323)
[4] = target: CHEK2 (human) (UniProt O96017)
[5] = target: MAPK12 (human) (UniProt P53778)
[6] = target: MYLK (human) (UniProt Q15746)
[7] = target: TAOK1 (human) (UniProt Q7L7X3)
[8] = target: STK3 (human) (UniProt Q13188)
[9] = target: RPS6KA1 KD1 KD2 (human) (UniProt Q15418)
[10] = target: MAPKAPK5 (human) (UniProt Q8IW41)
[11] = target: EPHB4 (human) (UniProt P54760)
[12] = target: CLK2 (human) (UniProt P49760)
[13] = test system: SGK1 (human), O00141 [S422D]
[14] = target: MELK (human) (UniProt Q14680)
[15] = target: DYRK3 (human) (UniProt O43781)
[16] = test system: ROCK2 (rat); settings: accession and sequence are those of the human protein
[17] = target: PRKCA (human) (UniProt P17252)
[18] = target: PIM3 (human) (UniProt Q86V86)
[19] = target: TTK (human) (UniProt P33981)
[20] = target: MAPK14 (human) (UniProt Q16539)
[21] = target: EPHB1 (human) (UniProt P54762)
[22] = target: MAP3K7 TAB1 (human) (UniProt Q15750+O43318)
[23] = target: GCK (human) (UniProt Q12851)
[24] = test system: RPS6KB1 (human), P23443 [T412E]
[25] = target: EPHA2 (human) (UniProt P29317)
[26] = target: PKN2 (human) (UniProt Q16513)
[27] = target: MARK1 (human) (UniProt Q9P0L2)
[28] = target: DYRK2 (human) (UniProt Q92630)
[29] = target: IKBKE (human) (UniProt Q14164)
[30] = target: NEK2 (human) (UniProt P51955)
[31] = target: HIPK2 (human) (UniProt Q9H2X6)
[32] = target: IRAK4 (human) (UniProt Q9NWZ3)
[33] = target: MARK2 (human) (UniProt Q7KZI7)
[34] = target: DAPK1 (human) (UniProt P53355)
[35] = target: PIM1 (human) (UniProt P11309)
Chain of PIM1 (human) (P11309 whole entry, looked up): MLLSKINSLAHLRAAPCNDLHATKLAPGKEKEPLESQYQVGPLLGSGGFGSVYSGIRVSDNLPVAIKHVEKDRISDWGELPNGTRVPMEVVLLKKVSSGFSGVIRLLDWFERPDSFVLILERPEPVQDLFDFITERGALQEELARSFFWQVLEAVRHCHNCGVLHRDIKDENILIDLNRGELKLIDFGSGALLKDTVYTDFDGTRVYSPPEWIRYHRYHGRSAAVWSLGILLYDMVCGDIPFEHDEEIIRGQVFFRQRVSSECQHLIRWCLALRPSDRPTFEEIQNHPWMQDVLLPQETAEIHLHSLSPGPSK

Chain of NEK2 (human) (P51955 whole entry, looked up): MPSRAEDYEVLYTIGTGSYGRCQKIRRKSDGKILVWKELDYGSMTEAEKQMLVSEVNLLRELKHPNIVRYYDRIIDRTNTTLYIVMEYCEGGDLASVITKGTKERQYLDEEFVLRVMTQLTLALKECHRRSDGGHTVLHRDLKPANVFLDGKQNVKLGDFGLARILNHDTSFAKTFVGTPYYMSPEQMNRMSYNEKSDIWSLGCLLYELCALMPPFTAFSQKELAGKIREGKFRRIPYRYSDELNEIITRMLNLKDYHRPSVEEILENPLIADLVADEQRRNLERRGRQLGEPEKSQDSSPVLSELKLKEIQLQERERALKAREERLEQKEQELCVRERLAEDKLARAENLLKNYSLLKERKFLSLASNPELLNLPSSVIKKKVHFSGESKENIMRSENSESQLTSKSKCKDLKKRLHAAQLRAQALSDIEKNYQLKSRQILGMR
Chain of MAP3K7 TAB1 (human) (O43318 whole entry, looked up): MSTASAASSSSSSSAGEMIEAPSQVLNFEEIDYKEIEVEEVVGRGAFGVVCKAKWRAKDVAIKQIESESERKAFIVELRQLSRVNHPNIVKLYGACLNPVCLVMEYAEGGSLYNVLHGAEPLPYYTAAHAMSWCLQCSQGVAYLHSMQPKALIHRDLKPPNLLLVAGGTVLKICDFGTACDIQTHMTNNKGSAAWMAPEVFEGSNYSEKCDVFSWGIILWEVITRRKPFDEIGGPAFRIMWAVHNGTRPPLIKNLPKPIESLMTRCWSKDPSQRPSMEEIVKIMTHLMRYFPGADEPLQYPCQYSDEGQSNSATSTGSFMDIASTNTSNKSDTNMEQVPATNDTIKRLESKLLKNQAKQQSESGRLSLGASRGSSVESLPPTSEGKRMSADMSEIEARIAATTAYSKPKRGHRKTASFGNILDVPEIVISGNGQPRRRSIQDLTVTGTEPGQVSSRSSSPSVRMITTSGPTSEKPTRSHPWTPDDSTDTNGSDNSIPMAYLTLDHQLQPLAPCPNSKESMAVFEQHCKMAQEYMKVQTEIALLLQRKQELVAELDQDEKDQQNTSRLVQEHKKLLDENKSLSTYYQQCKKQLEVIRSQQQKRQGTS
Chain of MAP3K7 TAB1 (human) (Q15750 whole entry, looked up): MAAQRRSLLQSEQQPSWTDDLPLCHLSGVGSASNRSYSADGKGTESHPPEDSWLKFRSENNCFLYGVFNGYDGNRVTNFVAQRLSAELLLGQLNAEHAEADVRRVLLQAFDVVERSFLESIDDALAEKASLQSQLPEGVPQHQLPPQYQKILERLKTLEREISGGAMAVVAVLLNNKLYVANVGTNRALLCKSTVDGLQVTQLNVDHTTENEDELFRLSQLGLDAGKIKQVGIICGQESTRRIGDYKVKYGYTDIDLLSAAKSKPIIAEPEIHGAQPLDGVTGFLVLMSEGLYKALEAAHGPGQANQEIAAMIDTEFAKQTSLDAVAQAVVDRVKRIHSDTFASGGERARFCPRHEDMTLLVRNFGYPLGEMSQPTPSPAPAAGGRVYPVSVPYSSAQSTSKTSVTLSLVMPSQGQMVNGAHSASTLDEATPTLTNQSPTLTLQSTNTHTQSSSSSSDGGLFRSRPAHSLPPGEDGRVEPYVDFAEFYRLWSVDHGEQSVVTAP
Chain of DYRK3 (human) (O43781 whole entry, looked up): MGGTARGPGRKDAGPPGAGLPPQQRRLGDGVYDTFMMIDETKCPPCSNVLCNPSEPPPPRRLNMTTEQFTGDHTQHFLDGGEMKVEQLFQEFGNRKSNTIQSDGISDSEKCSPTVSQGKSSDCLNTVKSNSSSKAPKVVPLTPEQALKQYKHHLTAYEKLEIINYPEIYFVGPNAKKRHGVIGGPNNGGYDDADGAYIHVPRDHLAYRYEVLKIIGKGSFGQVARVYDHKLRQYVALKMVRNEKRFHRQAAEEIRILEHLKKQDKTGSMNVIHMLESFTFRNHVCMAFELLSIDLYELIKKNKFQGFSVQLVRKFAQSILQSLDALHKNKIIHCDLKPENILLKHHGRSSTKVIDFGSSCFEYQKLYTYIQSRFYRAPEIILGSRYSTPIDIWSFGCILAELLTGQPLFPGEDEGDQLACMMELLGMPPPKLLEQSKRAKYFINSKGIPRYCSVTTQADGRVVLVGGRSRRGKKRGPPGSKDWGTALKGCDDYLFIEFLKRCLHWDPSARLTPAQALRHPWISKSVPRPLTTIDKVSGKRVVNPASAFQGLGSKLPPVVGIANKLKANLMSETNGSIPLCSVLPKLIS
Chain of MYLK (human) (Q15746 whole entry, looked up): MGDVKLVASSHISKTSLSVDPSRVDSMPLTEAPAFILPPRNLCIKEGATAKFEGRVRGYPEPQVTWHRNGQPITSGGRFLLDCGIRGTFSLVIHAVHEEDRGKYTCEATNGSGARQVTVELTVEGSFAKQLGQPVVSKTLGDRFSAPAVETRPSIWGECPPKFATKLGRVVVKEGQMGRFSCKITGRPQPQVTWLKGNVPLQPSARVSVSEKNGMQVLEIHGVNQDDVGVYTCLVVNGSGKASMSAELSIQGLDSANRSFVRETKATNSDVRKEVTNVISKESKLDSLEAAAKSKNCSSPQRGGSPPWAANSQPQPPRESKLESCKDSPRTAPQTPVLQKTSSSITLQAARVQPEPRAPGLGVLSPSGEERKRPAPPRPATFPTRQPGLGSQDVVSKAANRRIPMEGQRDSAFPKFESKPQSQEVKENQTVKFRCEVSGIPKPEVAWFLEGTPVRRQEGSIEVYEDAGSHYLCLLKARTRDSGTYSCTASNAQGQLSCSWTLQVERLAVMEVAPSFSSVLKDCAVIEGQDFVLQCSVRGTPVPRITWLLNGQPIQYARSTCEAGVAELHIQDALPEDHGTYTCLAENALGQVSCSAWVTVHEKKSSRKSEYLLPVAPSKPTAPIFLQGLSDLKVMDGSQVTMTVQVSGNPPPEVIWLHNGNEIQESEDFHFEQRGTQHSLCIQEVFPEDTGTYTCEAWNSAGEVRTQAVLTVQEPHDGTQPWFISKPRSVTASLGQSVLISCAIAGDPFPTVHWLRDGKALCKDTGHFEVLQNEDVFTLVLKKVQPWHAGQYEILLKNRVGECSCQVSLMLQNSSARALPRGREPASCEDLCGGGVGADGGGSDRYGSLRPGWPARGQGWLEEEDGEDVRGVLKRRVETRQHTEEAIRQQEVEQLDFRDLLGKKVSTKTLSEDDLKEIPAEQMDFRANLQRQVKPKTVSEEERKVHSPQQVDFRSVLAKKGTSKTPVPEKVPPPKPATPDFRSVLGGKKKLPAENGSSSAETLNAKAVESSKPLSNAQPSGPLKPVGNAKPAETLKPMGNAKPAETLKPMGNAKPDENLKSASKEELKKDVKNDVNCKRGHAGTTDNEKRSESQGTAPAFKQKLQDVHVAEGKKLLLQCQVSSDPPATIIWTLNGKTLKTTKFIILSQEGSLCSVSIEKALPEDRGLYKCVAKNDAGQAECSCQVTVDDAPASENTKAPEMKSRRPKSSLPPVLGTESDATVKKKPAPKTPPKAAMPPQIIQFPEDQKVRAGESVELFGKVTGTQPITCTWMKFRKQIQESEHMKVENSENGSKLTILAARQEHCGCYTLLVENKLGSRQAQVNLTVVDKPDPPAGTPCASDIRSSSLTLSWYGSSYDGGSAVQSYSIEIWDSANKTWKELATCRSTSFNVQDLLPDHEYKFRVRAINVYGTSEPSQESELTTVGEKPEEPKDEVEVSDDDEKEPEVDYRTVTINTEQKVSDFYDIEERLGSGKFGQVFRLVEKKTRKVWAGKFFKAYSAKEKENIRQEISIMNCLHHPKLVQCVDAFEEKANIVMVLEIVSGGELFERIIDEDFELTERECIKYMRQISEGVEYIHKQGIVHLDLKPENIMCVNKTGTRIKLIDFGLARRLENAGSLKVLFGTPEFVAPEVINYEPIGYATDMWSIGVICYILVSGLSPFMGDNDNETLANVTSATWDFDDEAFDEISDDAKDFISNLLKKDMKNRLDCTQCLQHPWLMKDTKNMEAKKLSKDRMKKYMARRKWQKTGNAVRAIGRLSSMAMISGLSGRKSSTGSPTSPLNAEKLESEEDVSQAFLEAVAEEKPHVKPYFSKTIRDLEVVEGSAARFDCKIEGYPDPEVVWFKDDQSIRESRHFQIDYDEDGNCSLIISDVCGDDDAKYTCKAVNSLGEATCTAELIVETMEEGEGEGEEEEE
Chain of CLK2 (human) (P49760 whole entry, looked up): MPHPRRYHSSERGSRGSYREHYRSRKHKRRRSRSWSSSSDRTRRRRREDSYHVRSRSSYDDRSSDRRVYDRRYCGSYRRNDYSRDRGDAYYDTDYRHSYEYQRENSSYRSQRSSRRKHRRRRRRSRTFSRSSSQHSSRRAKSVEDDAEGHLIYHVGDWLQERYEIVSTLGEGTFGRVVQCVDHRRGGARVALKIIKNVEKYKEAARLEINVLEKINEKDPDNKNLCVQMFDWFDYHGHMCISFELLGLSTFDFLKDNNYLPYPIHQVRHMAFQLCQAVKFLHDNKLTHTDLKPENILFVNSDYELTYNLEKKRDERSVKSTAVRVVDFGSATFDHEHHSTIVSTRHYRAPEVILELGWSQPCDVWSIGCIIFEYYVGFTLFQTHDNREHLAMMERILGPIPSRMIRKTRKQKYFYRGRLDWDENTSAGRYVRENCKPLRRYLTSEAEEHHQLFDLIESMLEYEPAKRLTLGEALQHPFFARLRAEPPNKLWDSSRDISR

residual activity ([1]; compound 0.01 µM): 17%
residual activity ([1]; compound 0.1 µM): 13%
residual activity ([1]; compound 1.0 µM): 4%
residual activity ([2]; compound 0.01 µM): 19%
residual activity ([2]; compound 0.1 µM): 0%
residual activity ([2]; compound 1.0 µM): -1%
residual activity ([3]; compound 0.01 µM): 108%
residual activity ([3]; compound 0.1 µM): 89%
residual activity ([3]; compound 1.0 µM): 34%
residual activity ([4]; compound 0.01 µM): 24%
residual activity ([4]; compound 0.1 µM): 5%
residual activity ([4]; compound 1.0 µM): 2%
residual activity ([5]; compound 0.01 µM): 76%
residual activity ([5]; compound 0.1 µM): 29%
residual activity ([5]; compound 1.0 µM): 6%
residual activity ([6]; compound 0.01 µM): 48%
residual activity ([6]; compound 0.1 µM): 4%
residual activity ([6]; compound 1.0 µM): 1%
residual activity ([7]; compound 0.01 µM): 53%
residual activity ([7]; compound 0.1 µM): 15%
residual activity ([7]; compound 1.0 µM): 7%
residual activity ([8]; compound 0.01 µM): 18%
residual activity ([8]; compound 0.1 µM): 16%
residual activity ([8]; compound 1.0 µM): 9%
residual activity ([9]; compound 0.01 µM): 9%
residual activity ([9]; compound 0.1 µM): 3%
residual activity ([9]; compound 1.0 µM): 1%
residual activity ([10]; compound 0.01 µM): 81%
residual activity ([10]; compound 0.1 µM): 15%
residual activity ([10]; compound 1.0 µM): 2%
residual activity ([11]; compound 0.01 µM): 102%
residual activity ([11]; compound 0.1 µM): 60%
residual activity ([11]; compound 1.0 µM): 8%
residual activity ([12]; compound 0.01 µM): 9%
residual activity ([12]; compound 0.1 µM): -1%
residual activity ([12]; compound 1.0 µM): -1%
residual activity ([13]; compound 0.01 µM): 79%
residual activity ([13]; compound 0.1 µM): 32%
residual activity ([13]; compound 1.0 µM): 10%
residual activity ([14]; compound 0.01 µM): 18%
residual activity ([14]; compound 0.1 µM): 10%
residual activity ([14]; compound 1.0 µM): 5%
residual activity ([15]; compound 0.01 µM): 24%
residual activity ([15]; compound 0.1 µM): 4%
residual activity ([15]; compound 1.0 µM): 2%
residual activity ([16]; compound 0.01 µM): 82%
residual activity ([16]; compound 1.0 µM): 7%
residual activity ([17]; compound 0.01 µM): 79%
residual activity ([17]; compound 0.1 µM): 44%
residual activity ([18]; compound 0.01 µM): 17%
residual activity ([18]; compound 0.1 µM): 10%
residual activity ([18]; compound 1.0 µM): 10%
residual activity ([19]; compound 0.01 µM): 37%
residual activity ([19]; compound 0.1 µM): 13%
residual activity ([19]; compound 1.0 µM): 7%
residual activity ([20]; compound 0.01 µM): 106%
residual activity ([20]; compound 0.1 µM): 109%
residual activity ([20]; compound 1.0 µM): 105%
residual activity ([21]; compound 0.01 µM): 41%
residual activity ([21]; compound 0.1 µM): 56%
residual activity ([21]; compound 1.0 µM): 25%
residual activity ([22]; compound 0.01 µM): 111%
residual activity ([22]; compound 0.1 µM): 2%
residual activity ([22]; compound 1.0 µM): 2%
residual activity ([23]; compound 0.01 µM): 6%
residual activity ([23]; compound 0.1 µM): 4%
residual activity ([23]; compound 1.0 µM): 2%
residual activity ([24]; compound 0.01 µM): 37%
residual activity ([24]; compound 0.1 µM): 6%
residual activity ([24]; compound 1.0 µM): 3%
residual activity ([25]; compound 0.01 µM): 92%
residual activity ([25]; compound 0.1 µM): 53%
residual activity ([25]; compound 1.0 µM): 19%
residual activity ([26]; compound 0.01 µM): 21%
residual activity ([26]; compound 0.1 µM): 8%
residual activity ([26]; compound 1.0 µM): 6%
residual activity ([27]; compound 0.01 µM): 11%
residual activity ([27]; compound 0.1 µM): 5%
residual activity ([27]; compound 1.0 µM): 5%
residual activity ([28]; compound 0.01 µM): 41%
residual activity ([28]; compound 0.1 µM): 9%
residual activity ([28]; compound 1.0 µM): 4%
residual activity ([29]; compound 0.01 µM): 6%
residual activity ([29]; compound 0.1 µM): 1%
residual activity ([29]; compound 1.0 µM): 2%
residual activity ([30]; compound 0.01 µM): 105%
residual activity ([30]; compound 0.1 µM): 105%
residual activity ([30]; compound 1.0 µM): 66%
residual activity ([31]; compound 0.01 µM): 85%
residual activity ([31]; compound 0.1 µM): 30%
residual activity ([31]; compound 1.0 µM): 6%
residual activity ([32]; compound 0.01 µM): 7%
residual activity ([32]; compound 0.1 µM): 7%
residual activity ([32]; compound 1.0 µM): 4%
residual activity ([33]; compound 0.01 µM): 11%
residual activity ([33]; compound 0.1 µM): 5%
residual activity ([33]; compound 1.0 µM): 4%
residual activity ([34]; compound 0.01 µM): 51%
residual activity ([34]; compound 0.1 µM): 18%
residual activity ([34]; compound 1.0 µM): 4%
residual activity ([35]; compound 0.01 µM): 71%
residual activity ([35]; compound 0.1 µM): 16%
residual activity ([35]; compound 1.0 µM): 1%
Compound: CNC(=O)C1[C@H]2O[C@@](C)([C@@H]1N)n1c3ccccc3c3c4c(c5c6ccccc6n2c5c31)C(=O)NC4 (stereo not given in full)

residual activity ([1]; compound 10.0 µM): 65%
residual activity ([2]; compound 0.1 µM): 24%
residual activity ([2]; compound 1.0 µM): 9%
residual activity ([2]; compound 10.0 µM): 2%
residual activity ([3]; compound 0.1 µM): 99%
residual activity ([3]; compound 1.0 µM): 110%
residual activity ([3]; compound 10.0 µM): 111%
residual activity ([4]; compound 0.1 µM): 112%
residual activity ([4]; compound 1.0 µM): 51%
residual activity ([4]; compound 10.0 µM): 9%
residual activity ([5]; compound 0.1 µM): 108%
residual activity ([5]; compound 1.0 µM): 115%
residual activity ([5]; compound 10.0 µM): 97%
residual activity ([6]; compound 0.1 µM): 118%
residual activity ([6]; compound 1.0 µM): 112%
residual activity ([6]; compound 10.0 µM): 110%
residual activity ([7]; compound 0.1 µM): 109%
residual activity ([7]; compound 1.0 µM): 98%
residual activity ([7]; compound 10.0 µM): 70%
residual activity ([8]; compound 0.1 µM): 131%
residual activity ([8]; compound 10.0 µM): 100%
residual activity ([9]; compound 0.1 µM): 106%
residual activity ([9]; compound 1.0 µM): 100%
residual activity ([9]; compound 10.0 µM): 76%
residual activity ([10]; compound 1.0 µM): 67%
residual activity ([10]; compound 10.0 µM): 24%
residual activity ([11]; compound 0.1 µM): 110%
residual activity ([11]; compound 1.0 µM): 106%
residual activity ([11]; compound 10.0 µM): 99%
residual activity ([12]; compound 0.1 µM): 86%
residual activity ([12]; compound 1.0 µM): 43%
residual activity ([12]; compound 10.0 µM): 9%
residual activity ([13]; compound 0.1 µM): 116%
residual activity ([13]; compound 1.0 µM): 112%
residual activity ([13]; compound 10.0 µM): 112%
residual activity ([14]; compound 0.1 µM): 123%
residual activity ([14]; compound 10.0 µM): 77%
residual activity ([15]; compound 0.1 µM): 111%
residual activity ([15]; compound 10.0 µM): 40%
residual activity ([16]; compound 0.1 µM): 112%
residual activity ([16]; compound 1.0 µM): 96%
residual activity ([16]; compound 10.0 µM): 95%
residual activity ([17]; compound 0.1 µM): 101%
residual activity ([17]; compound 10.0 µM): 90%
residual activity ([18]; compound 0.1 µM): 55%
residual activity ([18]; compound 1.0 µM): 18%
residual activity ([18]; compound 10.0 µM): 3%
residual activity ([19]; compound 0.1 µM): 117%
residual activity ([19]; compound 1.0 µM): 101%
residual activity ([19]; compound 10.0 µM): 84%
residual activity ([20]; compound 0.1 µM): 94%
residual activity ([20]; compound 1.0 µM): 94%
residual activity ([20]; compound 10.0 µM): 83%
residual activity ([21]; compound 0.1 µM): 113%
residual activity ([21]; compound 1.0 µM): 106%
residual activity ([21]; compound 10.0 µM): 106%
residual activity ([22]; compound 0.1 µM): 113%
residual activity ([22]; compound 1.0 µM): 109%
residual activity ([22]; compound 10.0 µM): 70%
residual activity ([23]; compound 0.1 µM): 109%
residual activity ([23]; compound 1.0 µM): 89%
residual activity ([23]; compound 10.0 µM): 19%
residual activity ([24]; compound 0.1 µM): 99%
residual activity ([24]; compound 1.0 µM): 95%
residual activity ([24]; compound 10.0 µM): 80%
residual activity ([25]; compound 0.1 µM): 90%
residual activity ([25]; compound 1.0 µM): 95%
residual activity ([25]; compound 10.0 µM): 76%
residual activity ([26]; compound 0.1 µM): 108%
residual activity ([26]; compound 1.0 µM): 101%
residual activity ([26]; compound 10.0 µM): 81%
residual activity ([27]; compound 0.1 µM): 116%
residual activity ([27]; compound 1.0 µM): 107%
residual activity ([27]; compound 10.0 µM): 93%
residual activity ([28]; compound 0.1 µM): 101%
residual activity ([28]; compound 1.0 µM): 105%
residual activity ([28]; compound 10.0 µM): 52%
residual activity ([29]; compound 0.1 µM): 98%
residual activity ([29]; compound 1.0 µM): 95%
residual activity ([29]; compound 10.0 µM): 44%
residual activity ([30]; compound 0.1 µM): 108%
residual activity ([30]; compound 1.0 µM): 99%
residual activity ([30]; compound 10.0 µM): 88%
residual activity ([31]; compound 1.0 µM): 113%
residual activity ([31]; compound 10.0 µM): 78%
residual activity ([32]; compound 0.1 µM): 94%
residual activity ([32]; compound 1.0 µM): 62%
residual activity ([32]; compound 10.0 µM): 24%
residual activity ([33]; compound 0.1 µM): 116%
residual activity ([33]; compound 1.0 µM): 113%
residual activity ([33]; compound 10.0 µM): 95%
residual activity ([34]; compound 0.1 µM): 103%
residual activity ([34]; compound 1.0 µM): 62%
residual activity ([34]; compound 10.0 µM): 15%
residual activity ([35]; compound 0.1 µM): 93%
residual activity ([35]; compound 1.0 µM): 58%
residual activity ([35]; compound 10.0 µM): 17%
Compound: Cc1ccc(-c2ccc3c(ccc4sc5c(c43)NC[C@@H](C)NC5=O)n2)cn1
